Results from US20190256929A1, “PHARMACODYNAMIC BIOMARKERS FOR PERSONALIZED CANCER CARE USING EPIGENETIC MODIFYING AGENTS” (ORYZON GENOMICS, S.A., priority 2016, published 2019).

System: small cell lung cancer cell lines
Test: qRT-PCR time- and dosage-dependent expression change of candidate PD markers ASCL1, GRP, NOTCH1 in SCLC cell lines
Assay type: cell-based, human
Procedure: Seven small cell lung cancer cell lines were treated with 0.1 nM, 1 nM and 10 nM (trans)-N1-((1R,2S)-2-phenylcyclopropyl)cyclohexane-1,4-diamine or vehicle 24 hr, 96 hr and 7 days. Lysates were prepared by lysis in RNA lysis buffer containing 1% β-mercaptoethanol. RNA extraction was performed using a Maxwell 16 instrument and a Maxwell 16 LEV simply RNA cells Kit (Promega), according to the manufacturer's instructions. The mRNA expression levels of each cell line after treatment were then measured using qRT-PCR. The RT-qPCR reaction was conducted using a one-step kit (ABI), with a duplexed house-keeping control (Assay ID Hs02800695_m1) using the assays in the table below. The log 2 fold changes for each gene were calculated by comparing with the vehicle controlled samples at 24 hr sampling point.
Table 6 contains the dose-dependent effect on expression changes for candidate PD markers ASCL1 (Assay ID Hs04187546_g1), GRP (Assay ID Hs01107047_m1) and NOTCH1 (Assay ID Hs01062014_m1).

[1] = LSD1i responsive cell lines, qRT-PCR
[2] = NCI-H69, 0.1 nM, 24 hrs, vs vehicle at 24 hr
[3] = NCI-H69, 0.1 nM, 96 hrs, vs vehicle at 24 hr
[4] = NCI-H69, 0.1 nM, 168 hrs, vs vehicle at 24 hr
[5] = NCI-H69, 1 nM, 24 hrs, vs vehicle at 24 hr
[6] = NCI-H69, 1 nM, 96 hrs, vs vehicle at 24 hr
[7] = NCI-H69, 1 nM, 168 hrs, vs vehicle at 24 hr
[8] = NCI-H69, 10 nM, 24 hrs, vs vehicle at 24 hr
[9] = NCI-H69, 10 nM, 96 hrs, vs vehicle at 24 hr
[10] = NCI-H69, 10 nM, 168 hrs, vs vehicle at 24 hr

N[C@H]1CC[C@H](N[C@@H]2C[C@H]2c2ccccc2)CC1 [RG6016, (trans)-N1-((1R,2S)-2-phenylcyclopropyl)cyclohexane-1,4-diamine]
Log2_FC ASCL1 (DMS-114, 0.1 nM, 24 hrs): −0.28
Log2_FC GRP (DMS-114, 0.1 nM, 24 hrs): 0.32
Log2_FC NOTCH1 (DMS-114, 0.1 nM, 24 hrs): −0.47
Log2_FC ASCL1 (DMS-114, 0.1 nM, 96 hrs): 0.18
Log2_FC GRP (DMS-114, 0.1 nM, 96 hrs): 0.25
Log2_FC NOTCH1 (DMS-114, 0.1 nM, 96 hrs): −0.11
Log2_FC ASCL1 (DMS-114, 0.1 nM, 168 hrs): 0.93
Log2_FC GRP (DMS-114, 0.1 nM, 168 hrs): 0.08
Log2_FC NOTCH1 (DMS-114, 0.1 nM, 168 hrs): 0.08
Log2_FC ASCL1 (DMS-114, 1 nM, 24 hrs): −0.50
Log2_FC GRP (DMS-114, 1 nM, 24 hrs): 0.45
Log2_FC NOTCH1 (DMS-114, 1 nM, 24 hrs): −0.47
Log2_FC ASCL1 (DMS-114, 1 nM, 96 hrs): −0.04
Log2_FC GRP (DMS-114, 1 nM, 96 hrs): −0.34
Log2_FC NOTCH1 (DMS-114, 1 nM, 96 hrs): −0.23
Log2_FC ASCL1 (DMS-114, 1 nM, 168 hrs): 1.02
Log2_FC GRP (DMS-114, 1 nM, 168 hrs): 0.86
Log2_FC NOTCH1 (DMS-114, 1 nM, 168 hrs): 0.08
Log2_FC ASCL1 (DMS-114, 10 nM, 24 hrs): −0.52
Log2_FC GRP (DMS-114, 10 nM, 24 hrs): 0.51
Log2_FC NOTCH1 (DMS-114, 10 nM, 24 hrs): −0.35
Log2_FC ASCL1 (DMS-114, 10 nM, 96 hrs): −0.38
Log2_FC GRP (DMS-114, 10 nM, 96 hrs): 0.67
Log2_FC NOTCH1 (DMS-114, 10 nM, 96 hrs): −0.30
Log2_FC ASCL1 (DMS-114, 10 nM, 168 hrs): 0.94
Log2_FC GRP (DMS-114, 10 nM, 168 hrs): −0.12
Log2_FC NOTCH1 (DMS-114, 10 nM, 168 hrs): 0.13
Regulation of ASCL1 (FIG. 8) [1]: down
Regulation of GRP (FIG. 8) [1]: down
Regulation of NOTCH1 (FIG. 8) [1]: up
Log2_FC ASCL1 [2]: −0.47
Log2_FC GRP [2]: −0.77
Log2_FC NOTCH1 [2]: −0.17
Log2_FC ASCL1 [3]: −0.63
Log2_FC GRP [3]: −1.46
Log2_FC NOTCH1 [3]: 0.57
Log2_FC ASCL1 [4]: −0.75
Log2_FC GRP [4]: −1.26
Log2_FC NOTCH1 [4]: 0.94
Log2_FC ASCL1 [5]: −0.71
Log2_FC GRP [5]: −0.51
Log2_FC NOTCH1 [5]: 0.26
Log2_FC ASCL1 [6]: −1.33
Log2_FC GRP [6]: −2.14
Log2_FC NOTCH1 [6]: 2.26
Log2_FC ASCL1 [7]: −1.36
Log2_FC GRP [7]: −2.12
Log2_FC NOTCH1 [7]: 2.38
Log2_FC ASCL1 [8]: −0.80
Log2_FC GRP [8]: −0.97
Log2_FC NOTCH1 [8]: 1.33
Log2_FC ASCL1 [9]: −1.40
Log2_FC GRP [9]: −2.19
Log2_FC NOTCH1 [9]: 2.42
Log2_FC ASCL1 [10]: −1.62
Log2_FC GRP [10]: −2.85
Log2_FC NOTCH1 [10]: 3.22
Log2_FC ASCL1 (NCI-H187, 0.1 nM, 24 hrs): 0.07
Log2_FC GRP (NCI-H187, 0.1 nM, 24 hrs): 0.16
Log2_FC NOTCH1 (NCI-H187, 0.1 nM, 24 hrs): −0.27
Log2_FC ASCL1 (NCI-H187, 0.1 nM, 96 hrs): 0.24
Log2_FC GRP (NCI-H187, 0.1 nM, 96 hrs): −0.29
Log2_FC NOTCH1 (NCI-H187, 0.1 nM, 96 hrs): 0.10
Log2_FC ASCL1 (NCI-H187, 0.1 nM, 168 hrs): 0.11
Log2_FC GRP (NCI-H187, 0.1 nM, 168 hrs): −0.50
Log2_FC NOTCH1 (NCI-H187, 0.1 nM, 168 hrs): 0.27
Log2_FC ASCL1 (NCI-H187, 1 nM, 24 hrs): −0.01
Log2_FC GRP (NCI-H187, 1 nM, 24 hrs): 0.05
Log2_FC NOTCH1 (NCI-H187, 1 nM, 24 hrs): 0.49
Log2_FC ASCL1 (NCI-H187, 1 nM, 96 hrs): 0.05
Log2_FC GRP (NCI-H187, 1 nM, 96 hrs): −0.03
Log2_FC NOTCH1 (NCI-H187, 1 nM, 96 hrs): 0.81
Log2_FC ASCL1 (NCI-H187, 1 nM, 168 hrs): 0.16
Log2_FC GRP (NCI-H187, 1 nM, 168 hrs): −0.59
Log2_FC NOTCH1 (NCI-H187, 1 nM, 168 hrs): 0.95
Log2_FC ASCL1 (NCI-H187, 10 nM, 24 hrs): 0.13
Log2_FC GRP (NCI-H187, 10 nM, 24 hrs): −0.16
Log2_FC NOTCH1 (NCI-H187, 10 nM, 24 hrs): 0.42
Log2_FC ASCL1 (NCI-H187, 10 nM, 96 hrs): 0.13
Log2_FC GRP (NCI-H187, 10 nM, 96 hrs): −0.61
Log2_FC NOTCH1 (NCI-H187, 10 nM, 96 hrs): 0.83
Log2_FC ASCL1 (NCI-H187, 10 nM, 168 hrs): 0.07
Log2_FC GRP (NCI-H187, 10 nM, 168 hrs): −0.67
Log2_FC NOTCH1 (NCI-H187, 10 nM, 168 hrs): 1.44
Log2_FC ASCL1 (NCI-H446, 0.1 nM, 24 hrs): −0.27
Log2_FC NOTCH1 (NCI-H446, 0.1 nM, 24 hrs): −0.04
Log2_FC NOTCH1 (NCI-H446, 0.1 nM, 96 hrs): −0.13
Log2_FC ASCL1 (NCI-H446, 0.1 nM, 168 hrs): −0.56
Log2_FC NOTCH1 (NCI-H446, 0.1 nM, 168 hrs): −0.40
Log2_FC ASCL1 (NCI-H446, 1 nM, 24 hrs): 0.00
Log2_FC NOTCH1 (NCI-H446, 1 nM, 24 hrs): −0.02
Log2_FC ASCL1 (NCI-H446, 1 nM, 96 hrs): −0.20
Log2_FC NOTCH1 (NCI-H446, 1 nM, 96 hrs): 0.06
Log2_FC ASCL1 (NCI-H446, 1 nM, 168 hrs): 0.02
Log2_FC NOTCH1 (NCI-H446, 1 nM, 168 hrs): 0.29
Log2_FC ASCL1 (NCI-H446, 10 nM, 24 hrs): −0.34
Log2_FC NOTCH1 (NCI-H446, 10 nM, 24 hrs): 0.04
Log2_FC NOTCH1 (NCI-H446, 10 nM, 96 hrs): 0.16
Log2_FC ASCL1 (NCI-H446, 10 nM, 168 hrs): 0.58
Log2_FC NOTCH1 (NCI-H446, 10 nM, 168 hrs): 0.42
Log2_FC NOTCH1 (NCI-H510A, 0.1 nM, 24 hrs, vs vehicle at 24 hr): 0.53
Log2_FC NOTCH1 (NCI-H510A, 0.1 nM, 96 hrs, vs vehicle at 24 hr): 1.93
Log2_FC NOTCH1 (NCI-H510A, 0.1 nM, 168 hrs, vs vehicle at 24 hr): 3.00
Log2_FC ASCL1 (NCI-H510A, 0.1 nM, 24 hrs): 0.07
Log2_FC GRP (NCI-H510A, 0.1 nM, 24 hrs): 0.22
Log2_FC ASCL1 (NCI-H510A, 0.1 nM, 96 hrs): 0.17
Log2_FC GRP (NCI-H510A, 0.1 nM, 96 hrs): −0.30
Log2_FC ASCL1 (NCI-H510A, 0.1 nM, 168 hrs): 0.03
Log2_FC GRP (NCI-H510A, 0.1 nM, 168 hrs): −0.44
Log2_FC ASCL1 (NCI-H510A, 1 nM, 24 hrs): −0.23
Log2_FC GRP (NCI-H510A, 1 nM, 24 hrs): −0.30
Log2_FC NOTCH1 (NCI-H510A, 1 nM, 24 hrs): 1.19
Log2_FC ASCL1 (NCI-H510A, 1 nM, 96 hrs): −0.50
Log2_FC GRP (NCI-H510A, 1 nM, 96 hrs): −1.75
Log2_FC NOTCH1 (NCI-H510A, 1 nM, 96 hrs): 2.87
